Data: the NIST ThermoML archive (doi:10.1016/j.fluid.2008.04.021)
± gives the expanded uncertainty stated by the source.

Assay: excess molar enthalpy (molar enthalpy of mixing); xn = mol fraction of the nth substance listed
Conditions: Liquid

CCCCOCC [butyl ethyl ether] + FC(F)(F)C(F)(F)C(F)(F)C(F)(F)C(F)(F)C(F)(F)F
298.15 K
Conditions	excess molar enthalpy [kcal/mol]
x2 = 0	0 ± 0.000478
x2 = 0.05	0.146 ± 0.00335
x2 = 0.1	0.259 ± 0.00574
x2 = 0.15	0.345 ± 0.00741
x2 = 0.2	0.41 ± 0.0086
x2 = 0.25	0.459 ± 0.00956
x2 = 0.3	0.494 ± 0.0103
x2 = 0.35	0.519 ± 0.0108
x2 = 0.4	0.536 ± 0.0112
x2 = 0.45	0.546 ± 0.0115
x2 = 0.5	0.549 ± 0.0115
x2 = 0.55	0.546 ± 0.0115
x2 = 0.6	0.535 ± 0.0112
x2 = 0.65	0.517 ± 0.0108
x2 = 0.7	0.489 ± 0.0103
x2 = 0.75	0.449 ± 0.00956
x2 = 0.8	0.396 ± 0.00837
x2 = 0.85	0.327 ± 0.00693
x2 = 0.9	0.24 ± 0.00526
x2 = 0.95	0.132 ± 0.00311

CCCCOC [butyl methyl ether] + FC(F)(F)C(F)(F)C(F)(F)C(F)(F)C(F)(F)C(F)(F)F
298.15 K
Conditions	excess molar enthalpy [kcal/mol]
x2 = 0	0 ± 0.000478
x2 = 0.05	0.148 ± 0.00335
x2 = 0.1	0.26 ± 0.00574
x2 = 0.15	0.344 ± 0.00741
x2 = 0.2	0.406 ± 0.0086
x2 = 0.25	0.452 ± 0.00956
x2 = 0.3	0.486 ± 0.0103
x2 = 0.35	0.51 ± 0.0108
x2 = 0.4	0.526 ± 0.011
x2 = 0.45	0.535 ± 0.0112
x2 = 0.5	0.539 ± 0.0112
x2 = 0.55	0.535 ± 0.0112
x2 = 0.6	0.524 ± 0.011
x2 = 0.65	0.505 ± 0.0105
x2 = 0.7	0.475 ± 0.01
x2 = 0.75	0.434 ± 0.00908
x2 = 0.8	0.379 ± 0.00813
x2 = 0.85	0.31 ± 0.00669
x2 = 0.9	0.224 ± 0.00502
x2 = 0.95	0.121 ± 0.00287

CCOCC [diethyl ether] + FC(F)(F)C(F)(F)C(F)(F)C(F)(F)C(F)(F)C(F)(F)F
293.15 K
Conditions	excess molar enthalpy [kcal/mol]
x2 = 0	0 ± 0.000478
x2 = 0.05	0.148 ± 0.00335
x2 = 0.1	0.26 ± 0.00574
x2 = 0.15	0.344 ± 0.00741
x2 = 0.2	0.408 ± 0.0086
x2 = 0.25	0.455 ± 0.00956
x2 = 0.3	0.491 ± 0.0103
x2 = 0.35	0.517 ± 0.0108
x2 = 0.4	0.535 ± 0.0112
x2 = 0.45	0.547 ± 0.0115
x2 = 0.5	0.551 ± 0.0115
x2 = 0.55	0.546 ± 0.0115
x2 = 0.6	0.533 ± 0.0112
x2 = 0.65	0.51 ± 0.0108
x2 = 0.7	0.475 ± 0.01
x2 = 0.75	0.427 ± 0.00908
x2 = 0.8	0.366 ± 0.00789
x2 = 0.85	0.292 ± 0.00621
x2 = 0.9	0.205 ± 0.00454
x2 = 0.95	0.107 ± 0.00263

CCCOCCC [dipropyl ether] + FC(F)(F)C(F)(F)C(F)(F)C(F)(F)C(F)(F)C(F)(F)F
298.15 K
Conditions	excess molar enthalpy [kcal/mol]
x2 = 0	0 ± 0.000478
x2 = 0.05	0.137 ± 0.00311
x2 = 0.1	0.249 ± 0.0055
x2 = 0.15	0.34 ± 0.00717
x2 = 0.2	0.413 ± 0.00884
x2 = 0.25	0.47 ± 0.0098
x2 = 0.3	0.514 ± 0.0108
x2 = 0.35	0.547 ± 0.0115
x2 = 0.4	0.569 ± 0.012
x2 = 0.45	0.582 ± 0.0122
x2 = 0.5	0.586 ± 0.0122
x2 = 0.55	0.582 ± 0.0122
x2 = 0.6	0.569 ± 0.012
x2 = 0.65	0.546 ± 0.0115
x2 = 0.7	0.514 ± 0.0108
x2 = 0.75	0.469 ± 0.0098
x2 = 0.8	0.411 ± 0.0086
x2 = 0.85	0.338 ± 0.00717
x2 = 0.9	0.247 ± 0.0055
x2 = 0.95	0.135 ± 0.00311

FC(F)(F)C(F)(F)C(F)(F)C(F)(F)C(F)(F)C(F)(F)F [perfluorohexane] + CCCCOC
Conditions	excess molar enthalpy [kcal/mol]
298.15 K, x1 = 1	0 ± 0.000478

FC(F)(F)C(F)(F)C(F)(F)C(F)(F)C(F)(F)C(F)(F)F [perfluorohexane] + CCCCOCC
Conditions	excess molar enthalpy [kcal/mol]
298.15 K, x1 = 1	0 ± 0.000478

FC(F)(F)C(F)(F)C(F)(F)C(F)(F)C(F)(F)C(F)(F)F [perfluorohexane] + CCCCOCCCC
298.15 K
Conditions	excess molar enthalpy [kcal/mol]
x1 = 0.05	0.144 ± 0.00335
x1 = 0.1	0.255 ± 0.0055
x1 = 0.15	0.338 ± 0.00717
x1 = 0.2	0.399 ± 0.00837
x1 = 0.25	0.443 ± 0.00932
x1 = 0.3	0.473 ± 0.01
x1 = 0.35	0.494 ± 0.0103
x1 = 0.4	0.506 ± 0.0105
x1 = 0.45	0.513 ± 0.0108
x1 = 0.5	0.515 ± 0.0108
x1 = 0.55	0.513 ± 0.0108
x1 = 0.6	0.506 ± 0.0105
x1 = 0.65	0.494 ± 0.0103
x1 = 0.7	0.474 ± 0.01
x1 = 0.75	0.444 ± 0.00932
x1 = 0.8	0.401 ± 0.0086
x1 = 0.85	0.34 ± 0.00717
x1 = 0.9	0.257 ± 0.0055
x1 = 0.95	0.146 ± 0.00335
x1 = 1	0 ± 0.000478

FC(F)(F)C(F)(F)C(F)(F)C(F)(F)C(F)(F)C(F)(F)F [perfluorohexane] + CCCOCCC
Conditions	excess molar enthalpy [kcal/mol]
298.15 K, x1 = 1	0 ± 0.000478

FC(F)(F)C(F)(F)C(F)(F)C(F)(F)C(F)(F)C(F)(F)F [perfluorohexane] + CCOCC
Conditions	excess molar enthalpy [kcal/mol]
293.15 K, x1 = 1	0 ± 0.000478
